Measurements published in publication PMC10932284 (International Journal of Molecular Sciences, 2024).
Like-named read-outs stand apart in the source and are kept apart here.

Key:
[1] = test system: M. tuberculosis strain susceptible to rifampicin and resistant to isoniazid; assay type: cell-based, Mycobacterium tuberculosis; conditions: 28 days, 37 °C
[2] = test system: M. tuberculosis strain resistant to both rifampicin and isoniazid; assay type: cell-based, Mycobacterium tuberculosis; conditions: for number of M. tuberculosis colonies/standard inoculum volume (0.2 mL): 28 days, 37 °C; for growth inhibition of mycobacteria (in words): both concentrations (1 and 2 µg/mL)
[3] = 1 µg/mL in Lowenstein Jensen medium
[4] = 2 µg/mL in Lowenstein Jensen medium

Structure (SMILES) | number of M. tuberculosis colonies/standard inoculum volume (0.2 mL) [1, 3] [colonies] | number of M. tuberculosis colonies/standard inoculum volume (0.2 mL) [1, 4] [colonies] | number of M. tuberculosis colonies/standard inoculum volume (0.2 mL) [2, 3] [colonies] | number of M. tuberculosis colonies/standard inoculum volume (0.2 mL) [2, 4] [colonies] | growth inhibition of mycobacteria (in words) [2]
CC(=O)Nc1nnc(S(N)(=O)=O)s1 [AAZ, acetazolamide, reference compound] | 0 | 0 | 0 | 0 | –
O=C1Nc2ccc(O)cc2S(=O)(=O)N1 [2t] | – | 0 | 0 | 0 | inhibited
O=C1Nc2ccc(F)cc2S(=O)(=O)N1 [2h] | 0 | 0 | 0 | 0 | inhibited
Cc1ccc2c(c1)S(=O)(=O)NC(=O)N2 [2c] | 0 | 0 | 0 | 0 | inhibited
Cc1cc(C)c2c(c1)S(=O)(=O)NC(=O)N2 [2d] | 0 | 0 | 0 | 0 | inhibited
CC(=O)/N=c1/sc(S(N)(=O)=O)nn1C [MTZ, reference compound] | 0 | 0 | 0 | 0 | –
O=C1Nc2ccccc2S(=O)(=O)N1 [2a] | 0 | 0 | 0 | 0 | inhibited
